In data set [1] the target is T1, NE of activated neutrophils (Mus musculus, UniProt Q3UP87).
T1 construct: endogenous in cells
T1 sequence (Q3UP87 27-265): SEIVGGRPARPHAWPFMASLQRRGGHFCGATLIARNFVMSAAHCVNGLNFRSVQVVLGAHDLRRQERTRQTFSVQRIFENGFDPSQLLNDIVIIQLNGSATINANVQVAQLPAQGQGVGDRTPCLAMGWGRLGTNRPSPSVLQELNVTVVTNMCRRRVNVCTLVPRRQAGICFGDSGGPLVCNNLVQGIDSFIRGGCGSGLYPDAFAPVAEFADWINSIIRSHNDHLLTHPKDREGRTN
Put plainly: Quantitative analysis of NE activity (NETosis Assay Kit). The settings on record: activated neutrophils (PMA), 4 h, NPs 0-200 µM; FTP-NPs result stated at 50 µM. The data set is classed as cell-based. The procedure: Submitted to Advanced Science
Neutrophil Elastase Activity Assay
To evaluate the distribution of active NE on the surface and inside of neutrophils, we used a kit (AkrivisBio’s Neutrophil Elastase Activity Assay, MA-0156), seeded neutrophils in confocal microscopy dishes, and then treated them with NFTP-NPs (50 µM, medium: DMSO = 99:1, v/v), FTP-NPs (50 µM, medium: DMSO = 99:1, v/v), PMA+NFTP-NPs (50 µM, medium: DMSO = 99:1, v/v), and PMA+FTP-NPs (50 µM, medium: DMSO = 99:1, v/v) at 37°C. Because the Neutrophil elastase in the kit cleaves a concrete fluorogenic substrate which releases AFC, providing intense fluorescence, 50 μl of MeOSucc-AAPV-AFC mix (Assay Buffer: MeOSucc-AAPV-AFC = 48:2) was added at 4 h, and after incubation for 1 h, the samples were examined by CLSM (LSM980, Zeiss, Germany).
Quantitative analysis of NE activity […]
DMSO = 99:1, v/v) for 4 h to obtain the solution.35,36 Quantitative analysis was carried out by a NETosis Assay Kit (Cayman Chemical, USA).
Quantitative induction analysis of NETs in vitro […]
According to the manufacturer's instructions, MPO -DNA levels in cultured supernatant were analyzed by an ELISA kit (MEIMIAN, China).38 Briefly, samples were added to each well and incubated with anti -MPO and anti-DNA antibodies for 2 h at room temperature. […] The OD value w as then measured by a microplate

Data set [2] in a line: Critical aggregation concentration, pyrene probe. The data set is classed as physicochemical. The settings on record: I3/I1 ratio, excitation 335 nm, 37 °C, 2 h, NPs 0.01-50 µM. How it is done: Submitted to Advanced Science temperature. Following the incubation, 10 µL of the solution was added to a copper mesh at 0 and 24 h. Filter paper was used to remove any extra droplets after an overnight stay. The samples were then stained for five minutes with uranyl acetate and then rinsed for one minute with water (10 µL). Finally, dried samples were observed by TEM (Talos 120C, Thermo Fisher Scientific, USA). DLS (Zetasizer Nano ZS, UK) was used to assess the solution for hydrodynamic size and zeta potential at 0 and 24 h following the incubation. Then, the nanofiber structure at 0 h and 24 h after incubation of FTP-NPs was examined with Circular Dichroism (CD) Spectra (Chirascan, UM, Britain). In addition, the variation of fluorescence emission spectra of PpIX by […]
transformation of FTP-NPs.
Pyrene molecules were employed as an indicator to determine the critical aggregation concentration (CAC) of nanoparticles by comparing the fluorescence of their third and first emissive peaks. […] The fluorescence spectra of pyrene (excitation, 335 nm) in different NPs dilutions were recorded. The fluorescence intensity ratio (I3/I1) of the third and first emissive peaks was measured for CAC calculation. […]

On to PpIX-GFFVLK-EAIPMSIPPEVK [FTP-NPs], for which, in data set [1], the “activity of NE” value is listed as “almost disappeared”. Besides, the “critical aggregation concentration (CAC)” value in data set [2] came to 5.45 µM.

“PpIX-GGGAAK-EAIPMSIPPEVK [NFTP-NPs, nanoparticles of the non-fibrillar transformable control peptide NFTP]”: the “activity of NE” value in data set [1] is “no significant effect”. In addition, in data set [2], the “critical aggregation concentration (CAC)” value was 3.75 µM.

The values above are taken from PMC12767106, “In Situ Assembly of Transformable Monopeptide on Activated Neutrophils Attenuates NETs‐Induced Hepatocellular Carcinoma Metastasis by Disrupting NE Nuclear Translocation” (Advanced Science, 2025).
